Measurements reported in US9623016B2, “Antibacterial compounds” (Emergent Virology LLC, priority 2013, dated 2017).
Where two headings read alike, the source gives them in different places.

Experiments:
[1] = tested on: S. aureus USA 300 alpha toxin; settings: 3 h incubation; hemolysis of 2% rabbit RBC, OD416 nm; FIG. 4
Protocol: • 1. Grow USA300 in MHA plate O/N • 2. Swab bacteria culture from plate and re-suspend in 2 ml PBS • 3. Spin and discard sup. • 4. Wash with 2 ml of PBS. • 5. Re-suspend in 2 ml LB. • 6. […] Add inoculum (make two different inoculum size: 1 and 1:10 in LB). […] Incubate at 370 C for 3 h • 11. Read growth OD600 (T3). • 12. Perform alpha hemolytic assay by using 2% rabbit RBC. Read OD416 nm (T3 hemolysis)

S. aureus = assay: Minimum Bactericidal Concentration (MBC); assay type: cell-based; settings: UV-4B
Protocol: (§1) MBC is the lowest concentration of compound required to kill an organism. […] In the case of small colony variants, growth might not occur earlier than 48 hours.

P. aeruginosa 4858 = assay: Minimum Bactericidal Concentration (MBC); assay type: cell-based
Protocol: as §1

S. aureus (8324-5) = assay: Minimum Bactericidal Concentration (MBC); assay type: cell-based
Protocol: as §1

B. subtilis = assay: Minimum Bactericidal Concentration (MBC); assay type: cell-based
Protocol: as §1

S. aureus (USA300) = assay: Minimum Bactericidal Concentration (MBC); assay type: cell-based
Protocol: as §1

S. aureus (Col) = assay: Minimum Bactericidal Concentration (MBC); assay type: cell-based
Protocol: as §1

[2] = tested on: Staphylococcus aureus USA300; settings: 200 mg/kg UV-4B orally TID for 10 days, from 3 days before IP challenge; water control 30%
Protocol: The challenge inoculum included 6.13e4 cfu USA300+3% Hog mucin which causes bacteremia/sepsis within 24-72 h. […] The mice used were 6-8 week old female BALB/c mice in groups of 10. One group of 5 mice was also included to examine the potential toxicity of 3% hog mucin. Endpoint was day 10 post infection, death, or euthanasia Animals displaying severe illness as determined by >30% weight loss, extreme lethargy, or paralysis were euthanized. Observation included daily weight, health checks, and temperatures starting with the initiation of dosing until 10 days post challenge.

P. aeruginosa 4990 [3] = tested on: P. aeruginosa 4990
Protocol: The MIC assay is a technique used to determine the lowest concentration of a particular antibiotic needed to inhibit visible growth of bacteria. In this method, two fold serial dilutions of the compound were prepared in broth media. An inoculum of overnight bacterial cultures will be prepared in the same broth medium. The serial dilution tubes will be inoculated with 0.025 ml of undiluted over-night culture (1:100), a 1×10-2 dilution (1:10,000), or a 1×10-4 dilution (1:1,000,000) of bacterial suspension. Results were recorded after 24 hour incubation at 35° C. without shaking by measuring OD600. The MIC is determined by the lowest concentration of compound where no growth is visible.

P. aeruginosa 4990 [4] = tested on: P. aeruginosa 4990; remark: listed apart in the source
Protocol: as §1

E. coli (K12) = tested on: E. coli (K12)
Protocol: as §1

E. coli (WT) = tested on: E. coli (WT)
Protocol: as §1

P. aeruginosa 4961 = tested on: P. aeruginosa 4961
Protocol: as §1

COCCCCCCCCCN1C[C@H](O)[C@@H](O)[C@H](O)[C@H]1CO.Cl [UV-4B, hydrochloric acid salt of N-(9-Methoxynonyl)deoxynojirimycin]
concentration allowing inhibition of alpha toxin production [1]: higher than 2.5 mg/ml
MBC (S. aureus): 20 mg/mL
MBC (P. aeruginosa 4858; UV-4B): >20 mg/mL
growth after re-inoculation on BHI agar (P. aeruginosa 4858; UV-4B 2.50 mg/ml): +
growth after re-inoculation on BHI agar (P. aeruginosa 4858; UV-4B 5.00 mg/ml): +
growth after re-inoculation on BHI agar (P. aeruginosa 4858; UV-4B 10 mg/ml): +
growth after re-inoculation on BHI agar (P. aeruginosa 4858; UV-4B 20 mg/ml): +
growth after re-inoculation on BHI agar (S. aureus (8324-5); UV-4B 2.50 mg/ml): +
growth after re-inoculation on BHI agar (S. aureus (8324-5); UV-4B 5.00 mg/ml): +
growth after re-inoculation on BHI agar (S. aureus (8324-5); UV-4B 10 mg/ml): +
growth after re-inoculation on BHI agar (S. aureus (8324-5); UV-4B 20 mg/ml): −
MBC (B. subtilis; UV-4B): >10 mg/mL
growth after re-inoculation on BHI agar (B. subtilis; UV-4B 2.50 mg/ml): +
growth after re-inoculation on BHI agar (B. subtilis; UV-4B 5.00 mg/ml): +
growth after re-inoculation on BHI agar (B. subtilis; UV-4B 10 mg/ml): +
MBC (S. aureus (USA300); UV-4B): >20 mg/mL
growth after re-inoculation on BHI agar (S. aureus (USA300); UV-4B 2.50 mg/ml): +
growth after re-inoculation on BHI agar (S. aureus (USA300); UV-4B 5.00 mg/ml): +
growth after re-inoculation on BHI agar (S. aureus (USA300); UV-4B 10 mg/ml): +
growth after re-inoculation on BHI agar (S. aureus (USA300); UV-4B 20 mg/ml): +
MBC (S. aureus (Col); UV-4B): 2.5 mg/mL
growth after re-inoculation on BHI agar (S. aureus (Col); UV-4B 2.50 mg/ml): −
growth after re-inoculation on BHI agar (S. aureus (Col); UV-4B 5.00 mg/ml): −
growth after re-inoculation on BHI agar (S. aureus (Col); UV-4B 10 mg/ml): −
survival [2]: 80%
MIC (P. aeruginosa 4990 [3]; Table 3): 5 mg/mL
visible growth (P. aeruginosa 4990 [3]; UV-4B 0.04 mg/ml): +
visible growth (P. aeruginosa 4990 [3]; UV-4B 0.08 mg/ml): +
visible growth (P. aeruginosa 4990 [3]; UV-4B 0.16 mg/ml): +
visible growth (P. aeruginosa 4990 [3]; UV-4B 0.31 mg/ml): +
visible growth (P. aeruginosa 4990 [3]; UV-4B 0.63 mg/ml): +
visible growth (P. aeruginosa 4990 [3]; UV-4B 2.50 mg/ml): +
visible growth (P. aeruginosa 4990 [3]; UV-4B 5 mg/ml): −
visible growth (P. aeruginosa 4990 [3]; UV-4B 10 mg/ml): −
visible growth (P. aeruginosa 4990 [3]; UV-4B 20 mg/ml): −
MBC (P. aeruginosa 4990 [4]; UV-4B): >20 mg/mL
growth after re-inoculation on BHI agar (P. aeruginosa 4990 [4]; UV-4B 2.50 mg/ml): +
growth after re-inoculation on BHI agar (P. aeruginosa 4990 [4]; UV-4B 5.00 mg/ml): +
growth after re-inoculation on BHI agar (P. aeruginosa 4990 [4]; UV-4B 10 mg/ml): +
growth after re-inoculation on BHI agar (P. aeruginosa 4990 [4]; UV-4B 20 mg/ml): +
MBC (E. coli (K12); UV-4B): 20 mg/mL
growth after re-inoculation on BHI agar (E. coli (K12); UV-4B 2.50 mg/ml): +
growth after re-inoculation on BHI agar (E. coli (K12); UV-4B 5.00 mg/ml): +
growth after re-inoculation on BHI agar (E. coli (K12); UV-4B 10 mg/ml): +
growth after re-inoculation on BHI agar (E. coli (K12); UV-4B 20 mg/ml): +
MBC (E. coli (WT); UV-4B): 10 mg/mL
growth after re-inoculation on BHI agar (E. coli (WT); UV-4B 2.50 mg/ml): +
growth after re-inoculation on BHI agar (E. coli (WT); UV-4B 5.00 mg/ml): +
growth after re-inoculation on BHI agar (E. coli (WT); UV-4B 10 mg/ml): −
MBC (P. aeruginosa 4961; UV-4B): >20 mg/mL
growth after re-inoculation on BHI agar (P. aeruginosa 4961; UV-4B 2.50 mg/ml): +
growth after re-inoculation on BHI agar (P. aeruginosa 4961; UV-4B 5.00 mg/ml): +
growth after re-inoculation on BHI agar (P. aeruginosa 4961; UV-4B 10 mg/ml): +
growth after re-inoculation on BHI agar (P. aeruginosa 4961; UV-4B 20 mg/ml): +
